Source: US9814720B2, “Compositions and methods of inhibiting IL-17 expression of neutrophils” (priority 2014, dated 2017)

Experiments:
RORγt [1] = test: RORγt nuclear translocation in IL-6/23-stimulated murine neutrophils (confocal imaging); type: cell-based, C57BL/6 mice; settings: IL-6+IL-23 stimulated, inhibitor 20 μM, FIG. 4D
Excerpt: Total bone marrow-derived cells were isolated from mouse femurs and tibias by flushing with RPMI and an 18-gauge needle. Erythrocytes were lysed with 1× lysis buffer (eBioscience), and bone marrow cells were separated on a Percoll (Fisher) gradient by density centrifugation (52%, 69%, and 78%). Cells at the 69-78% interface were harvested, and neutrophil purity (>98%) confirmed by flow cytometry and Wright-Giemsa staining. Murine or human neutrophils were suspended at a density of 10^6 cells/ml and incubated with […] of recombinant mouse or human IL-6 and 2 μg/ml IL-23 in RPMI, and the cells were maintained for 1-3 h at 37° C. in 5% CO2. Various inhibitors were used for assessing STAT3 activation. […] For the determination of RORγt-dependent signaling, SR1001 (20 μM; Sigma) was used, which inhibits RORγt binding to the IL-17 promoter site. All inhibitors were added to neutrophils 2 h prior to recombinant IL-6 and IL-23 stimulation. Corneas were dissected and incubated for 1 h at 37° C. in collaganese (80 U/ml) (C0130; Sigma-Aldrich), and washed in FACS buffer (PBS+1% FBS+0.5% Sodium azide). Ten corneas were pooled and analyzed by intracellular flow cytometry. Conversely, bone marrow cells or neutrophils were collected as described above and washed in FACS buffer. […] Cells were analyzed using a C6 Accuri flow cytometer (BD). […]

IL-17A = IL-17A protein and Il17a gene expression in IL-6/23-stimulated human neutrophils; type: cell-based
Protocol: (§1) Neutrophils were isolated from peripheral blood of healthy donors. Peripheral blood was incubated in 3% Dextran, and neutrophils isolated by Ficoll gradient centrifugation (Fisher Scientific), with neutrophil purity determined by staining with Wright-Giemsa.
IL-17A protein production was quantified by 2-site ELISA, according to the manufacturer's directions (R&D Biosciences).
(§2) Murine or human neutrophils were suspended at a density of 10^6 cells/ml and incubated with […] of recombinant mouse or human IL-6 and 2 μg/ml IL-23 in RPMI, and the cells were maintained for 1-3 h at 37° C. in 5% CO2. Various inhibitors were used for assessing STAT3 activation. For STAT3, neutrophils were treated with either the STAT3-SH2 inhibitor, Stattic (20 μM) obtained from Tocris, or the JAK-1, 2 inhibitor, INC424, (aka Ruxolitinib; 20 μM (Selleck BioChem)). For the determination of RORγt-dependent signaling, SR1001 (20 μM; Sigma) was used, which inhibits RORγt binding to the IL-17 promoter site. All inhibitors were added to neutrophils 2 h prior to recombinant IL-6 and IL-23 stimulation.
Neutrophil and corneal cell RNA was extracted using the RNeasy mini kit according to the manufacturer's directions (Qiagen, Valencia, Calif.). […]
The SYBR green system (Applied Biosystems, Carlsbad, Calif.) was utilized for quantitative PCR (qPCR) using ABI Biosystems. […]

RORγt [2] = test: RORγt nuclear translocation in IL-6/23-stimulated human neutrophils (nuclear extract western blot, confocal); type: cell-based
Protocol: as §1
as §2, with “stimulation. […]” for “stimulation.”
Neutrophils collected from primed or naïve C57BL/6 mice or unstimulated murine or human neutrophils were incubated with recombinant IL-6 and IL-23 for 60 min. […] Total protein was quantified using the BCA method, denatured with 2× Laemmli buffer (Sigma) and heated to 95° C. for 5 minutes. […] Ten μg of total protein was analyzed on a 12% SDS polyacrylamide gel, and transferred to nitrocellulose. […]

O=[N+]([O-])c1ccc2c(c1)S(=O)(=O)C=C2 [Stattic]
RORγt localisation (cytoplasm vs nucleus) (RORγt [1]): only detected in the cytoplasm
IL-17A protein (IL-17A; FIG. 5D): ablated
Il17a gene expression (IL-17A; FIG. 5E): ablated
RORγt localisation by confocal microscopy (RORγt [2]): only detected in the cytoplasm
RORγt in nuclear extracts (RORγt [2]; western blot, FIG. 5B): no longer detectable
